Measured values taken from patent US20120259007A1, “ANTICOAGULANT COMPOUNDS AND THEIR USE” (HAOMA MEDICA LIMITED, priority 2009, published 2012).

Assays:
Mice = experiment: Observed anticoagulant activity (bleeding) in treated mice; format: in vivo; settings: single injection 15 μg/mouse/day intraperitoneally in 10% ethanol in saline
Protocol: Mice were treated with one compound of the present invention (4E)-6-(1,4-dihydro-2-methyl-1,4-dioxonaphthalen-3-yl)-4-methylhex-4-enoic acid (VIII) [also called NaQuinate herein] in the form of a single injection (15 μg/mouse/day) administered in 10% ethanol in saline injections intraperitoneally. Control mice received the carrier but not the NaQuinate active component.

[1] = biological target: T1, recombinant human γ-carboxylase (Homo sapiens, UniProt P38435); experiment: Inhibition of recombinant human gamma-carboxylase (14CO2 incorporation, microsomes from High Five cells); format: biochemical; settings: in the presence of 220 μM vitamin K1 hydroquinone; compounds reduced to hydroquinone forms; n=1; read-out: IC50 against 220 μM vitamin K1
T1 construct: made in house; host or cells: Trichoplusia ni High Five cells (microsomes)
T1 sequence (P38435 1-758): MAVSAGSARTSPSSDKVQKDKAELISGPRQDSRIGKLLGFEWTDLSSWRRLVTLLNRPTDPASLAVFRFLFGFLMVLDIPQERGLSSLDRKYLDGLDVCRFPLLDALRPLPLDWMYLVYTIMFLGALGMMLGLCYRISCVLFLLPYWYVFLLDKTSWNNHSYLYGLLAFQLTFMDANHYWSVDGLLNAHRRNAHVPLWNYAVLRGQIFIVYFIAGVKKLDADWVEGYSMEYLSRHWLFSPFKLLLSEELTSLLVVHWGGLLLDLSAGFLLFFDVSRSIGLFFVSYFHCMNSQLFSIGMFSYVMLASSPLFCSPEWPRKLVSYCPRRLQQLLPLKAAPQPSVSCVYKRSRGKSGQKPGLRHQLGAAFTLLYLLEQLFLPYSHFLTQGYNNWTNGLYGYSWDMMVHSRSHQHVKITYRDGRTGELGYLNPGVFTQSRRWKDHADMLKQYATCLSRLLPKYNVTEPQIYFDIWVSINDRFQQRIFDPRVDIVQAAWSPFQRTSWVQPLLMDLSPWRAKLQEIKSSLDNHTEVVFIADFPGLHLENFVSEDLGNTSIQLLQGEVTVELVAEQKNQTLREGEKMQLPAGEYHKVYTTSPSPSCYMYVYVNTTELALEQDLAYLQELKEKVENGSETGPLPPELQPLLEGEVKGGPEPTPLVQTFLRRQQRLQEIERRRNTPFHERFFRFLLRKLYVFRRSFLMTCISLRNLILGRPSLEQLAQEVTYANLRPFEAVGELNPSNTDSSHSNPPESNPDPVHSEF
Protocol: The compounds to be tested were reduced to their hydroquinone forms by the addition of 0.2 M DTT to a solution of the compounds in DMSO (giving a final v/v ratio of 1:3 DTT:DMSO) and overnight incubation in a water bath (37° C.).
In this assay a different microsomal preparation was used than the one described above. This microsomal preparation consists of microsomes prepared from Trichoplusia ni High Five cells that had had the cDNA for the human γ-carboxylase incorporated into their DNA. These microsomes were taken from stores that had been prepared as described by Houben, R. J., D. Jin, et al. (1999). “Osteocalcin binds tightly to the gamma-glutamylcarboxylase at a site distinct from that of the other known vitamin K-dependent proteins.” Biochem J 341 (Pt 2): 265-9.
Standard reaction mixtures contained 5 μl of microsomal preparation, 5 μl of 500 μM decarboxylated osteocalcin (d-OC) (except for the negative control tube), 25 μl of saturated ammonium sulphate solution, 5 μl of 5% PC/CHAPS. In addition to this, 1:3 (v/v) DMSO: 0.2 M DTT was added to the tubes (to take into account the fact that the compounds were dissolved in 1:3 DMSO: 0.2 M DTT) to give a total volume of 40 μl DMSO: 0.2 M DTT per tube. A solution of Buffer D was added to give all final tubes a uniform volume of 125 μl. The experiment was initiated by the addition of 10 μl of a 1:1 (v/v) mixture of vitamin K hydroquinone (final concentration of 220 μM) and NaH^14CO3 (final radioactivity of 5 μCi) to each tube, followed by a range of concentrations of the compounds.

| IC50 [1] [µM] | Structure (SMILES) | bleeding compared with mice not treated (anticoagulant effect) (Mice) |
| --- | --- | --- |
| 358 | COC(=O)CCC(C)=CCC1=C(C)C(=O)c2ccccc2C1=O [NaQuinate-Me (VII)] |  |
| 534 | COC(=O)CC/C(C)=C/CC1=C(C)C(=O)C(OC)=C(OC)C1=O [QCAT-Me (XVIII)] |  |
| 460 | CC1=CC(=O)c2ccccc2C1=O [Vitamin K3 (III), menadione, reference compound] |  |

The next lines start with the molecule.

| Structure (SMILES) | IC50 [1] [µM] | bleeding compared with mice not treated (anticoagulant effect) (Mice) |
| --- | --- | --- |
| CC1=C(C/C=C(\C)CCC(=O)O)C(=O)c2ccccc2C1=O [NaQuinate (VIII), (4E)-6-(1,4-dihydro-2-methyl-1,4-dioxonaphthalen-3-yl)-4-methylhex-4-enoic acid] | 152 | bleed out much more profusely |
| COC(=O)C(C)CCC1=C(C)C(=O)c2ccccc2C1=O (stereo not shown) [KCAT-5C-Me (XIX)] | 514 |  |
| CC1=C(C/C=C(\C)C(=O)O)C(=O)c2ccccc2C1=O [KCAT-5C (XIV), (2E)-4-(1,4-dihydro-2-methyl-1,4-dioxonaphthalen-3-yl)-2-methylbut-2-enoic acid] | 340 |  |
